Structures are written as SMILES.

Sequence of human GPR40 (O14842 whole entry): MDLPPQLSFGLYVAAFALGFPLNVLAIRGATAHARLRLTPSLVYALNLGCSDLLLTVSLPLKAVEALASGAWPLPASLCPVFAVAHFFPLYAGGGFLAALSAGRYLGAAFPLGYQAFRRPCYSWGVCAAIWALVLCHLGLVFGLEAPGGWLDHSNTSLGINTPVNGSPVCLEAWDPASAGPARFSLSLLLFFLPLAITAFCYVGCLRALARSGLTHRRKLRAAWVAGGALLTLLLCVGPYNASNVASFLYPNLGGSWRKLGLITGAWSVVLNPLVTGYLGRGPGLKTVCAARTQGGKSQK

In one experiment the test system is Male SD rats. Briefly: Oral Glucose Tolerance Test. The experiment is classed as in vivo, rat. To be noted: 10 mg/kg po 30-40 min prior to oGTT (glucose 2 g/kg po), blood glucose AUC t=0 to t=120 min. Here is the method: Male SD rats (200-250 g) were housed 2 per cage in a temperature-controlled room with a 12-hour light/dark cycle. They were allowed ad libitum access to water and fed with normal rodent chow. The night before the oral glucose tolerance test (oGTT), the rats were transferred to clean cages and fasted overnight. On the morning of the oGTT, the rats were weighed and randomized into groups based on fasted blood glucose and body weight. Rats were dosed with vehicle (0.5% methocel) or compounds (10 mg/kg, po) thirty to forty min prior to the oGTT (glucose, 2 g/kg, po). Blood was collected from the tail vein at 0, 10, 30, 60 and 120 minutes after glucose challenge to measure blood glucose; plasma was used to determine insulin levels. The area under the curve for blood glucose excursion was calculated from t=0 to t=120 minutes. Percent lowering of glucose was calculated from the AUC data with respect to the vehicle-treated group.
For the compound `CC#C[C@@H](Cc1nnn[nH]1)c1ccc(OCc2ccc3scc(-c4ccccc4C)c3c2)cc1` [Cpd 1, (2S)-5-(2-(4-((3-(2-Methylphenyl)benzo[b]thiophen-5-yl)methoxy)phenyl)pent-3-yn-1-yl)-1H-tetrazole], the “Percent Lowering of Glucose (AUC compound vs. AUC Vehicle)” value came to 81%. Same read-out and setting: the figure for `CC#C[C@@H](Cc1nnn[nH]1)c1ccc(OCc2ccc3scc(-c4ccc(OCC5(C)CS(=O)(=O)C5)cc4C)c3c2)cc1` [Cpd 12, (2S)-3-((4-(5-((4-(1-(1H-Tetrazol-5-yl)pent-3-yn-2-yl)phenoxy)methyl)benzo[b]thiophen-3-yl)-3-methylphenoxy)methyl)-3-methylthietane 1,1-dioxide] is 101%. For `CC#C[C@@H](Cc1nnn[nH]1)c1ccc(OCc2ccc3scc(-c4ccc(OCCCS(C)(=O)=O)cc4C)c3c2)cc1` [Cpd 16, (2S)-5-(2-(4-((3-(2-Methyl-4-(3-(methylsulfonyl)propoxy)phenyl)benzo[b]thiophen-5-yl)methoxy)phenyl)pent-3-yn-1-yl)-1H-tetrazole], the “Percent Lowering of Glucose (AUC compound vs. AUC Vehicle)” value is listed as 105%. On the same count and under the same terms, the same measure for `CC#C[C@@H](Cc1nnn[nH]1)c1ccc(OCc2ccc3sc(F)c(-c4ccc(OCCOC)cc4C)c3c2)cc1` [Cpd 44, (2S)-5-(2-(4-((2-Fluoro-3-(4-(2-methoxyethoxy)-2-methylphenyl)benzo[b]thiophen-5-yl)methoxy)phenyl)pent-3-yn-1-yl)-1H-tetrazole]: 91%; for `CC#C[C@@H](Cc1nnn[nH]1)c1ccc(OCc2ccc3sc(C(F)(F)F)c(-c4ccc(OCCOC)cc4C)c3c2)cc1` [Cpd 47, 5-((2S)-2-(4-((3-(4-(2-Methoxyethoxy)-2-methylphenyl)-2-(trifluoromethyl)benzo[b]thiophen-5-yl)methoxy)phenyl)pent-3-yn-1-yl)-1H-tetrazole]: 91%.

The next experiment addresses human GPR40 (Homo sapiens (Human), UniProt O14842). Briefly: GPR40 Calcium Flux Assay.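 Further: calcium flux followed with the Fluo-8 fluorescent dye, intensity read each second over 8 min as compounds were added to the cells.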 Format: cell-based. Conditions: transfected HEK293 cells stably expressing human GPR40; Ca2+ mobilization; mean data; read-out: hGPR40 Ca^2+ Assay EC50. On the technique in general: Calcium flux is commonly read through the fluorescence of an indicator in the cells.
With `CC#C[C@@H](Cc1nnn[nH]1)c1ccc(OCc2cc(C)c3scc(C4CCCCC4)c3c2)cc1` [Cpd 66, (2S)-5-(2-(4-((3-Cyclohexyl-7-methylbenzo[b]thiophen-5-yl)methoxy)phenyl)pent-3-yn-1-yl)-1H-tetrazole], the concentration for a half-maximal effect (EC50) – broadly, the concentration that produces a half-maximal response – worked out at 1120 nM.

The values above are taken from patent US10106553B2, “Substituted benzothiophenyl derivatives as GPR40 agonists for the treatment of type II diabetes” (Janssen Pharmaceutica NV, priority 2016, dated 2018).
